The record followed here is publication PMC11839907, “Deciphering the tight metabolite‐level regulation of glucose‐1‐phosphate adenylyltransferase (GlgC) for glycogen synthesis in cyanobacteria” (The Febs Journal, 2024).

Molecules are shown by their SMILES. Where two headings read alike, the source gives them in different places.

The target of test [1] is T1, GlgC (Synechocystis sp. PCC 6803, UniProt P52415).
T1 construct: shorter variant lacking first 10 residues of P52414, starts VKRVLAIILGG (primer 3); N-terminal His-tag (pET28a), E. coli Rosetta-gami (DE3); active as tetramer
T1 sequence (P52415 11-439): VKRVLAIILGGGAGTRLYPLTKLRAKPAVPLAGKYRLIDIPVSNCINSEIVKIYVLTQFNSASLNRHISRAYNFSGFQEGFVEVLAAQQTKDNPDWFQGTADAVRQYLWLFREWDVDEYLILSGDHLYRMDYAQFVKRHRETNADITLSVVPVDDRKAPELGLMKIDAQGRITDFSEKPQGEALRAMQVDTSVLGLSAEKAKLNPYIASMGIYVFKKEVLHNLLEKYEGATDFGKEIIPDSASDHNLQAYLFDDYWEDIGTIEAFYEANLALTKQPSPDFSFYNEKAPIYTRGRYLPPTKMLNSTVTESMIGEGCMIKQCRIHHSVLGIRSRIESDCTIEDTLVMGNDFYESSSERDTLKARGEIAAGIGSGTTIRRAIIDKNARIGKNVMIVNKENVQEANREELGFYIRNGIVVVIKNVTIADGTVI
In words: continuous GlgC-GlgA1 / pyruvate kinase / LDH coupled assay, A340. The test is classed as biochemical.

In test [2] the target is T1, GlgC. The description is as above. The test is classed as biochemical. Particulars: read-out: 3-PGA (mM) / 0.00.

By EC50 is commonly meant the concentration needed to bring the measured effect to its halfway point. High values mean a need for much substance, low ones an effect from little substance. On GlgC [1], `O=C(O)[C@H](O)COP(=O)(O)O` [3-PGA] yielded an EC50 of 0.43 mM. For `O=P(O)(O)OC[C@H]1OC(O)(CO)[C@@H](O)[C@@H]1O` (stereo partly drawn) [Fru-6P], on GlgC [1] (activator, no 3-PGA, 0.25 mM Glc-1P, 2 mM ATP, 12 mM MgCl2, pH 8.0, 30 °C), the EC50 worked out at 2.3 mM.

Turning to `O=P(O)(O)O` [Pi], the IC50 at GlgC [2] was 0.42 mM.
